Assay results as given in PubChem BioAssay (NCI).
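Here, GI50 denotes the concentration required for 50% inhibition of growth. Definition used: TGI = concentration required for complete inhibition of growth.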

Assays:
Assay in all cases: DTP human tumour cell line panel, 384-well format
[1] = system: HCT-15 colon
[2] = system: NCI-H460 NSCLC
[3] = system: COLO 205 colon
[4] = system: RPMI-8226 leukemia
[5] = system: SK-OV-3 ovarian
[6] = system: OVCAR-5 ovarian
[7] = system: T-47D breast
[8] = system: MOLT-4 leukemia
[9] = system: 786-0 renal
[10] = system: OVCAR-8 ovarian
[11] = system: HT29 colon
[12] = system: SF-295 CNS
[13] = system: HL-60(TB) leukemia
[14] = system: HOP-62 NSCLC
[15] = system: MDA-MB-435 melanoma
[16] = system: NCI-H322M lung
[17] = system: MCF7 breast
[18] = system: SK-MEL-5 melanoma
[19] = system: PC-3 prostate
[20] = system: HOP-92 NSCLC
[21] = system: SK-MEL-2 melanoma
[22] = system: HCC-2998 colon
[23] = system: ACHN renal
[24] = system: MDA-MB-231 breast
[25] = system: A498 renal
[26] = system: CAKI-1 renal
[27] = system: MALME-3M melanoma
[28] = system: KM12 colon
[29] = system: SF-539 CNS
[30] = system: UO-31 renal
[31] = system: UACC-62 melanoma
[32] = system: NCI/ADR-RES ovarian
[33] = system: A549 NSCLC
[34] = system: NCI-H23 lung
[35] = system: SF-268 CNS
[36] = system: SNB-19 CNS
[37] = system: CCRF-CEM leukemia
[38] = system: BT-549 breast
[39] = system: SR leukemia
[40] = system: M14 melanoma
[41] = system: IGROV1 ovarian
[42] = system: TK-10 renal
[43] = system: RXF 393 renal
[44] = system: HCT-116 colon
[45] = system: NCI-H522 lung
[46] = system: MDA-MB-468 breast
[47] = system: U251 glioblastoma
[48] = system: SK-MEL-28 melanoma
[49] = system: OVCAR-3 ovarian
[50] = system: SN12C renal
[51] = system: EKVX NSCLC
[52] = system: SW-620 colon
[53] = system: SNB-75 CNS
[54] = system: OVCAR-4 ovarian
[55] = system: NCI-H226 lung
[56] = system: UACC-257 melanoma
[57] = system: K-562 leukemia
[58] = system: LOX IMVI melanoma
[59] = system: DU-145 prostate

Work on `CC(C)(C[C@H]1CN(S(=O)(=O)c2cccc(C(F)(F)F)c2)c2cc(-c3cc(F)cc(OC(F)F)c3)ccc2O1)C(=O)O` yielded a GI50 [1] of 4.15 µM, a TGI [1] of 14.1 µM and a GI50 [2] of 4.04 µM. It also gave a TGI [2] of 13 µM, a GI50 [3] of 5.83 µM and a TGI [3] of 15.3 µM. The GI50 [4] was 2.78 µM, the TGI [4] was 6.15 µM and the GI50 [5] was 9.09 µM. For the same compound, the TGI [5] was 21.4 µM, the GI50 [6] was 16.3 µM and the TGI [6] was 29.9 µM. It also gave a GI50 [7] of 5.89 µM, a TGI [7] of 18.9 µM and a GI50 [8] of 3.11 µM. It also gave a TGI [8] of 8.3 µM, a GI50 [9] of 9.51 µM and a TGI [9] of 22.8 µM. The GI50 [10] was 9.79 µM, the TGI [10] was 22.1 µM and the GI50 [11] was 3.97 µM. It also gave a TGI [11] of 13.6 µM, a GI50 [12] of 3.02 µM and a TGI [12] of 10.3 µM. It also gave a GI50 [13] of 2.74 µM, a TGI [13] of 4.91 µM and a GI50 [14] of 4.81 µM. It also gave a TGI [14] of 16.7 µM, a GI50 [15] of 2.04 µM and a TGI [15] of 4.48 µM. For the same compound, the GI50 [16] was 12.6 µM, the TGI [16] was 25.6 µM and the GI50 [17] was 4.82 µM. It also gave a TGI [17] of 17.2 µM, a GI50 [18] of 3.86 µM and a TGI [18] of 13.5 µM. For the same compound, the GI50 [19] was 8.44 µM, the TGI [19] was 20.8 µM and the GI50 [20] was 7.09 µM. It also gave a TGI [20] of 20 µM, a GI50 [21] of 2.73 µM and a TGI [21] of 7.34 µM. The GI50 [22] was 6.63 µM, the TGI [22] was 20.7 µM and the GI50 [23] was 13.4 µM. For the same compound, the TGI [23] was 26.7 µM, the GI50 [24] was 8.82 µM and the TGI [24] was 21.4 µM. For the same compound, the GI50 [25] was 4.35 µM, the TGI [25] was 15.5 µM and the GI50 [26] was 6.92 µM. The TGI [26] was 19 µM, the GI50 [27] was 11.5 µM and the TGI [27] was 24.5 µM. For the same compound, the GI50 [28] was 4.06 µM, the TGI [28] was 14.4 µM and the GI50 [29] was 6 µM. For the same compound, the TGI [29] was 18.4 µM, the GI50 [30] was 10.5 µM and the TGI [30] was 22.3 µM. The GI50 [31] was 3.84 µM, the TGI [31] was 13.6 µM and the GI50 [32] was 2.52 µM. For the same compound, the TGI [32] was 7.17 µM, the GI50 [33] was 4.28 µM and the TGI [33] was 15.5 µM. For the same compound, the GI50 [34] was 3.38 µM, the TGI [34] was 10.7 µM and the GI50 [35] was 9.85 µM. For the same compound, the TGI [35] was 22.6 µM, the GI50 [36] was 8.54 µM and the TGI [36] was 20.5 µM. It also gave a GI50 [37] of 6.52 µM, a TGI [37] of 18.4 µM and a GI50 [38] of 2.8 µM. The TGI [38] was 9.11 µM, the GI50 [39] was 1.51 µM and the TGI [39] was 2.9 µM. The GI50 [40] was 4.53 µM, the TGI [40] was 15.3 µM and the GI50 [41] was 7.94 µM. It also gave a TGI [41] of 20.9 µM, a GI50 [42] of 10.6 µM and a TGI [42] of 23.1 µM. The GI50 [43] was 4.02 µM, the TGI [43] was 11.1 µM and the GI50 [44] was 7.93 µM. It also gave a TGI [44] of 20.5 µM, a GI50 [45] of 2.66 µM and a TGI [45] of 7.35 µM. It also gave a GI50 [46] of 2.66 µM, a TGI [46] of 7.31 µM and a GI50 [47] of 7.65 µM. The TGI [47] was 20.2 µM, the GI50 [48] was 7.37 µM and the TGI [48] was 20.1 µM. The GI50 [49] was 2.46 µM, the TGI [49] was 7.45 µM and the GI50 [50] was 10.3 µM. For the same compound, the TGI [50] was 22.4 µM, the GI50 [51] was 10.7 µM and the TGI [51] was 22.8 µM. The GI50 [52] was 2.92 µM, the TGI [52] was 7.59 µM and the GI50 [53] was 17.4 µM. It also gave a TGI [53] of 31.2 µM, a GI50 [54] of 9.12 µM and a TGI [54] of 21.5 µM. The GI50 [55] was 8.64 µM, the TGI [55] was 22 µM and the GI50 [56] was 8.84 µM. The TGI [56] was 23.2 µM, the GI50 [57] was 3.18 µM and the TGI [57] was 12.1 µM. The GI50 [58] was 12.8 µM, the TGI [58] was 25.4 µM and the GI50 [59] was 10.1 µM. For the same compound, the TGI [59] was 21.9 µM.
